Reference: patent US12011438B2, “Composition for protecting cardiomyocyte” (Kyoto University, priority 2018, dated 2024)
Counter-ions that a name gives are not always drawn.

How the values were obtained:
[1] = tested on: CHOP and Bip, ER stress markers; assay: Western blotting of ER stress markers in rat cardiomyoblasts under tunicamycin; assay type: cell-based; settings: H9C2 cells, 200 μM KUS121 (FIG. 5)
Protocol: (§1) H9C2 cells, rat cardiomyoblasts, were cultured in Dulbecco's modified Eagle's medium (DMEM) supplemented with 5% fetal bovine serum in the presence of […] tunicamycin (Sigma-Aldrich Co. LLC), which induces ER stress, and 25, 50, 100, or […] KUS121 for 24 hours. The cells were counted by Countess II (Thermo Fisher Scientific). The intracellular ATP levels were measured using “Cell” ATP Assay reagent (TOYO B-Net Co., LTD). The luciferase activities, which indicate ATP levels, were measured with ARVO X3 (PerkinElmer, Inc.).
(§2) The cells cultured as above were subjected to Western blotting. […] After the protein concentrations were measured with BCA protein assay kit (Bio-Rad, 5000006JA), 15 μg of the protein samples were separated in NuPAGE 4-12% Bis-Tris Mini gels (Thermo Fisher Scientific) and transferred to Protran nitrocellulose transfer membrane (Whatman). The membrane was blocked with PBS containing 5% skim milk for 30 minutes, incubated with primary antibodies overnight at 4° C., washed with PBS-0.05% Tween-20 (PBS-T), incubated with secondary antibodies for 1 hour at room temperature, and washed with PBS-T. Pierce Western Blotting Substrate (Thermo Fisher Scientific) or Pierce Western Blotting Substrate plus (Thermo Fisher Scientific) were reacted with the secondary antibodies for producing colors, and the color intensities were measured by LAS-4000 Mini system (Fuji Film). […]

[2] = tested on: cardiac ischemia and reperfusion injury model pigs; assay: Porcine cardiac ischemia and reperfusion injury model (KUS administration after reperfusion); assay type: in vivo, Yorkshire pig; settings: intracoronary injection 0.64, 2.5, or 5.0 mg/kg immediately after reperfusion, seven days after surgery
Protocol: Porcine myocardial infarction model was prepared as in Test 8. The balloon was released 60 minutes after the occlusion, and immediately KUS121 was administered by intracoronary injection at a dose of 0.64, 2.5, or 5.0 mg/kg for 3 minutes. Seven days after the surgery, the infarct size was evaluated by MRI and the infarcted area was determined by histological analysis as in Test 8.

[3] = tested on: cardiac ischemia and reperfusion injury model mice; assay: Mouse cardiac ischemia and reperfusion injury model (KUS administration prior to ischemia); assay type: in vivo
Protocol: Eight-week-old C57BL/6J mice were used. Each mouse was anesthetized with intraperitoneally administered pentobarbital (64.8 mg/kg). An endotracheal tube was introduced after the anesthetic induction and positive pressure ventilation was provided.
Each mouse was fixed in a right lateral position, the thoracic cavity was opened through left thoracotomy in the third intercostal space to expose the heart. […] The blockage of the coronary blood flow was confirmed by observing a change in the color of the myocardium. The ischemia was continued for 45 minutes and then reperfusion was induced by removing the PE10 tube. The reperfusion was confirmed by checking restoration of the color of the myocardium. The thoracic cavity was closed with 7-0 prolene sutures and the skin was closed with 4-0 silk sutures. After observing awakening from the anesthesia, the endotracheal tube was removed.
KUS121 dissolved in a physiological saline was injected prior to the ischemia induction. […] First, 2 hours before the reperfusion, i.e., about 1 hour before the start of the ischemia, KUS121 was intraperitoneally administered at the dose of 160 mg/kg. Subsequently, KUS121 was intraperitoneally administered at the dose of 160 mg/kg every 24 hours for 6 days.
Seven days after the surgery, the mice were anesthetized with pentobarbital, perfused with 4% paraformaldehyde (PFA) for fixation, and the hearts were isolated. The isolated hearts were further fixed in 4% PFA overnight. The hearts were embedded in paraffin and sections were prepared. The infarcted regions were evaluated with Masson's trichrome staining. The images were acquired using a microscope (BZ-9000, Keyence) and the infarcted areas were measured using Image J (NIH).
To evaluate the cardiac function, echocardiography (Vevo^(registered trademark) 2100, VISUALSONICS) was performed in the mouse ischemia and reperfusion injury model. […] The left ventricular systolic functions were evaluated by measuring the left ventricular fractional shortening and left ventricular ejection fraction in parasternal short axis views.

[4] = tested on: A team mouse heart ischemia and reperfusion injury model; assay: Mouse heart ischemia and reperfusion injury model (ATP visualization mouse); assay type: in vivo; settings: A team mice, 160 mg/kg i.p. 2 hours before reperfusion, 45 minutes ischemia
Source text: ATP visualization mouse (A team mouse) generated by Dr. Masamichi Yamamoto (Department of Nephrology, Graduate School of Medicine, Kyoto University) was used. In A team mouse fluorescence resonance energy transfer (FRET) from GFP to OFP occurs depending on the intracellular ATP level. The OFP/GFP ratio is proportional to the ATP level.
Anesthesia was induced in each A team mouse with 4% isoflurane and maintained with 2% isoflurane during surgery. An endotracheal tube was introduced after the anesthetic induction and positive pressure ventilation was provided. The lateral thoracic regions and subcostal margins were incised bilaterally and the thoracic cavity was opened to expose the heart. […] The ischemia was continued for 45 minutes and then reperfusion was induced by removing the PE10 tube. KUS121 was intraperitoneally administered at the dose of 160 mg/kg 2 hours before the reperfusion. For measuring the ATP level, fluorescence was excited at 470/40 and detected at 515/30 for GFP and 575/40 for OFP to acquire images. The OFP/GFP ratios were analyzed using MetaMorph (Molecular Devices). The ATP level during ischemia was decreased in the control group, but maintained in the KUS121 group.

[5] = tested on: CHOP and Bip, ER stress markers; assay: Western blotting of ER stress markers in rat cardiomyoblasts in glucose-free medium; assay type: cell-based; settings: H9C2 cells, 200 μM KUS121 (FIG. 7)
Protocol: as §1, §2

[6] = tested on: H9C2 cells, rat cardiomyoblasts; assay: Rat cardiomyoblasts under ER stress with tunicamycin: cell number and ATP level; assay type: cell-based; settings: 0.1 pg/mL tunicamycin, 25, 50, 100, or 200 pM KUS121, 24 hours
Protocol: as §1

[7] = tested on: H9C2 cells, rat cardiomyoblasts; assay: Rat cardiomyoblasts under ER stress by glucose depletion: cell number and ATP level; assay type: cell-based; settings: glucose-free medium, 25, 50, 100, or 200 μM KUS121 (FIG. 6)
Protocol: as §1
Similar experiments were performed using the cells cultured in a glucose-free medium. […] The expressions of CHOP and Bip, ER stress markers, were suppressed in the presence of KUS121.

[8] = tested on: cardiac ischemia and reperfusion injury model mice; assay: Mouse cardiac ischemia and reperfusion injury model (KUS administration after reperfusion); assay type: in vivo; settings: seven days after surgery
Protocol: Mouse myocardial infarction model was prepared as in Test 5.
First, immediately after the reperfusion KUS121 was administered intravenously at the dose of 80 mg/kg and intraperitoneally at the dose of 80 mg/kg. Subsequently, KUS121 was intraperitoneally administered at the dose of 160 mg/kg every 24 hours for 4 days. Seven days after the surgery, histological analysis was performed as in Test 5 to determine the infarcted area.
Immediately after the reperfusion KUS121 was administered intravenously at the dose of 25 mg/kg and intraperitoneally at the dose of 25 mg/kg. Subsequently, KUS121 was not administered. Seven days after the surgery, histological analysis was performed as in Test 5 to determine the infarcted area.
Immediately after the reperfusion KUS121 was administered intravenously at the dose of 8 mg/kg and intraperitoneally at the dose of 8 mg/kg. Subsequently, KUS121 was not administered. Seven days after the surgery, histological analysis was performed as in Test 5 to determine the infarcted area.

[9] = tested on: cardiac ischemia and reperfusion injury model pigs; assay: Porcine cardiac ischemia and reperfusion injury model (intravenous and intracoronary administration of KUS); assay type: in vivo, Yorkshire pig
Protocol: Porcine myocardial infarction model was prepared by inserting a catheter into a Yorkshire pig under general anesthesia and occluding the left coronary artery with a balloon. An infusion solution was prepared by dissolving KUS121 (4 mg/kg) in 250 mL of glucose solution and administered by intravenous infusion that started 45 minutes after the occlusion of the coronary artery and continued for 3 hours. The balloon was released 60 minutes after the occlusion, and 10 mL of the infusion solution was infused intracoronarily.
One week after the occlusion, the infarct size was evaluated by late gadolinium enhanced MRI. […] The cardiac function was evaluated by determining left ventricular ejection fraction, end diastolic volume, end systolic volume, cardiac output, and left ventricular mass by MRI. The left ventricular systolic function was improved by KUS121 administration.
After the MRI, the occluded part of the left coronary artery was occluded again with the balloon catheter and 1% Evans blue was injected to the left and right coronary arteries (60 mL for the left coronary artery and 30 mL for the right coronary artery; non-infarct regions were stained blue). Additionally, 30 mL of 1% TTC solution was injected through the guidewire lumen of the occlusion balloon. Euthanasia was then performed by an intravenous injection of potassium chloride. The heart was isolated and 10-mm thick sections were prepared parallel to the atrioventricular groove. The sections were further immersed in 1% TTC solution for 10 minutes at 37° C. (regions not damaged by myocardial infarction were stained red). All sections were weighed and photographed. They were fixed in 10% formaldehyde and used for subsequent histological analysis. […] No difference was found in the area at risk between the […] group and the KUS group, but administration of KUS decreased the infarcted area per area at risk.

[10] = intravenous infusion plus intracoronary, histological analysis (Evans blue/TTC)

SMILES: Cc1cc(F)ccc1-c1ccc(/N=N/c2cc(S(=O)(=O)O)c3ccccc3c2N)cn1 [KUS121, 4-amino-3-[6-(4-fluoro-2-methylphenyl)pyridine-3-ylazo]naphthalene-1-sulfonic acid sodium salt]
- expression of Bip [1]: suppressed
- expression of CHOP [1]: suppressed
- ratio of infarcted area/left ventricle (LV) area evaluated by MRI [2]: decreased in the KUS121 group in a dose-dependent manner
- ratio of infarcted area/AAR ([2]; histological analysis): decreased in the KUS121 group in a dose-dependent manner
- ratio of infarcted area/area at risk (AAR) (first mention) ([2]; versus control group): comparable with that of the control group
- infarcted area (ratio to left ventricle area) ([3]; 160 mg/kg i.p. 2 hours before reperfusion and every 24 hours for 6 days, seven days after surgery, Masson's trichrome): smaller in the KUS121 group than in the control group
- expression of CHOP in the border zone and non-ischemic zone ([3]; 160 mg/kg i.p. prior to ischemia and every 24 hours, Western blotting): suppressed
- left ventricular systolic function (fractional shortening, ejection fraction) ([3]; 160 mg/kg i.p. prior to ischemia and every 24 hours, echocardiography): kept well at almost the same level as that in sham-operated group
- ATP level during ischemia (OFP/GFP ratio) [4]: maintained
- expression of Bip [5]: suppressed
- expression of CHOP [5]: suppressed
- ATP level [6]: increased depending on the dose
- cell number [6]: increased depending on the dose
- ATP level [7]: increased depending on the dose
- cell number [7]: increased depending on the dose
- infarcted area (ratio to left ventricle area) ([8]; (1) 160 mg/kg: 80 mg/kg i.v. + 80 mg/kg i.p. immediately after reperfusion, then 160 mg/kg i.p. every 24 hours for 4 days): smaller in the KUS121 group than in the control group
- infarcted area (ratio to left ventricle area) ([8]; (2) 50 mg/kg: 25 mg/kg i.v. + 25 mg/kg i.p. immediately after reperfusion only): smaller in the KUS121 group than in the control group
- infarcted area (ratio to left ventricle area) ([8]; (3) 16 mg/kg: 8 mg/kg i.v. + 8 mg/kg i.p. immediately after reperfusion only): No significant difference
- left ventricular systolic function ([9]; 4 mg/kg intravenous infusion for 3 hours plus intracoronary infusion after reperfusion, MRI one week after occlusion): improved
- area at risk relative to the left ventricle [9, 10]: No difference
- infarcted area per area at risk [9, 10]: decreased
